In patent US12606552B2, “Bifunctional compound, preparation method therefor, and use thereof” (SUZHOU KINTOR PHARMACEUTICALS, INC., priority 2020, dated 2026):

Legend:
[1] = test system: flank sebaceous glands of golden hamster; test: In vivo efficacy on acne in female golden hamsters (growth of sebaceous plaques induced by testosterone propionate); conditions: for The inhibition rate of the growth of sebaceous plaques (%): 400 μg (1.6%) + testosterone propionate 12 μg, skin smear once a day, 21 days
Source text: Activity Assay Example 7: In Vivo Efficacy of Compounds on Acne in Female Golden Hamsters
1. Test object: The flank sebaceous glands of golden hamster are androgen-dependent organs, and testosterone propionate (male hormone) promotes the enlargement of sebaceous glands. This experiment is mainly to study the inhibitory effect of CB-03-01 (positive drug), Flutamide (positive drug) and the compound on sebaceous gland enlargement in female golden hamster acne model (androgen dependence), to further observe the in vivo drug efficacy of the compound, to provide the basis for clinical trials of androgen-induced acne symptoms.
Androgen (Testosterone Propionate-TP); CB-03-01 (Clascoterone, CAS No. 19608-29-8); □ Flutamide (Flutamide, CAS No. 13311-84-7); compound A46 of the present invention.
2.2 Experimental Animals, See Table 4 for Details
2.3 Administration Vehicle: Acetone. 3. Experimental Design
In this experiment, from 72 female golden hamsters, according to the size and body weight of sebaceous glands, golden hamsters were evenly distributed to each group, 6 mice per group, a total of 7 groups, and they were administered continuously for 21 days.
According to the protocol in the table, […] of drug was administered each time, it was evenly smeared on the sebaceous glands, and administered once a day.
Animal grouping and status observation: Before grouping, the body weight was weighed, and the sebaceous glands on both sides were shaved for the observation of the size of sebaceous glands. Animals were observed twice a day in the morning and afternoon during the administration period. On the 21st day after administration, the size of sebaceous glands and the body weight of animals were observed and recorded.
The size of the sebaceous glands is expressed by the area, and the vernier caliper recorded its long side (a) and short side (b), and the area of the sebaceous glands (S) is obtained from the formula for calculating the area of a rectangle. In model group and administration group, ΔS=S−S(vehicle). Growth inhibition rate (%)=(ΔS(acetone testosterone group)−ΔS (administration group))/ΔS(acetone testosterone group)*100%.

AR = molecular target: T1, AR (Homo sapiens, UniProt P10275, T878A); test: Effects of compounds on AR expression in LNCaP cells (ELISA, DC50); type: cell-based; set-up: Measurement of the Effects of Drugs on the Expression of AR in Cells by ELISA Method; endogenous in cells; host or cells: LNCaP; conditions: 24 hours of drug treatment, AR by ELISA
T1 sequence (P10275 1-920 T878A): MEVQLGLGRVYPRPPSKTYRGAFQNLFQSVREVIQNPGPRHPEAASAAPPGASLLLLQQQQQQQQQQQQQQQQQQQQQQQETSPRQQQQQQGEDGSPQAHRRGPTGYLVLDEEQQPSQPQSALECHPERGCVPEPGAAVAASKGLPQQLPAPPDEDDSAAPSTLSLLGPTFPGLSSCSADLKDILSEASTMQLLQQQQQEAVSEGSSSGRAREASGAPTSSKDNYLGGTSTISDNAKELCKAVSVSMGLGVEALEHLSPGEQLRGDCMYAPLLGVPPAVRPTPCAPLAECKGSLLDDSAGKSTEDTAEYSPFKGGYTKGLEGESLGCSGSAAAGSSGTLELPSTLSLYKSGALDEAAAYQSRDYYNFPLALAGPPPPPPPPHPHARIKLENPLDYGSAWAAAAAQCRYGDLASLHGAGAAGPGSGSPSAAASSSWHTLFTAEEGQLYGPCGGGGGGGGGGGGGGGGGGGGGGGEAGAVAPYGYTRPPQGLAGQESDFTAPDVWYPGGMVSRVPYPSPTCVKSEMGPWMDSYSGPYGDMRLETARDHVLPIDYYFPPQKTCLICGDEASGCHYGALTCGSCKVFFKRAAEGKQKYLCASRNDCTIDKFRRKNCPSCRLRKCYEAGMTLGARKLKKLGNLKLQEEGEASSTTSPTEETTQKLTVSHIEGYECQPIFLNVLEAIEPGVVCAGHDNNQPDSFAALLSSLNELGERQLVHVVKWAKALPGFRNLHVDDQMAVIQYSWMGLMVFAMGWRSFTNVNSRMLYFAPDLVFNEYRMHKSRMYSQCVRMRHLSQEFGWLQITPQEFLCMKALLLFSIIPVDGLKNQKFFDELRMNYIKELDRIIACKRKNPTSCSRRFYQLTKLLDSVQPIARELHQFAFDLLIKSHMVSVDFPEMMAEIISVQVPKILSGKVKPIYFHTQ
Outline: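 LNCaP cells at about 15,000/well were treated for 24 h with compound at 0.0001–2 μmol/L final. AR in cell lysates was measured by ELISA (OD450). Inhibition was relative to DMSO control after blank subtraction, and DC50 was calculated from it.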

[2] = test system: LNCaP (human prostate cancer); test: Hormone-dependent prostate cancer long-term efficacy test (LNCaP xenograft, tumor growth inhibition); type: in vivo, SCID nude mice
Experimental: Activity Assay Example 5: Hormone-Dependent Prostate Cancer Long-Term Efficacy Test
1. Tumor Model Establishment
1.5*10^7 LNCaP (human prostate cancer) was purchased from the Chinese Academy of Sciences Cell Bank and cultured in RPMI-1640 medium containing 10% fetal bovine serum. The cells were grown to 80-90% confluence and passaged in about 4-5 days, and the cells were grown to a sufficient amount and then inoculated into nude mice.
18-20 g SCID nude mice aged 6-7 weeks old were purchased from Beijing Vital River Co., Ltd. Mice were kept in SPF animal room, in which the temperature was 20-25° C., and the humidity was 40%-70%, and light/dark was 12 hours a day respectively. Animals were kept in separate cages, 5 per cage, with free access to food and water, in which the feed was sterilized by irradiation, and the water was autoclaved. The mice were grouped for experiment when raised to 10˜11 weeks old. LNCaP tumor cells were directly inoculated into the right back of nude mice.
3. Grouping and Administration Schedule Design
When the average tumor volume reached 200-300 mm^3, the tumors with good shape were selected for random number grouping according to the tumor volume, and the selected animals were marked and divided into 5 groups, 5 per group. Administration vehicle: 5% EtOH, 5% solutolHS15 in PBS. The corresponding dose of compound was administered by gavage.
Data are presented as mean±standard deviation (Mean±SD). One-way multi-level analysis of variance was used for statistics, and the comparison between each drug group and the model group was performed by Stundent's t-test or rank sum test, and the p value was calculated. p<0.05 means there is a significant difference between the two groups.

For `CCC(=O)O[C@]1(C(=O)CO)CC[C@H]2[C@@H]3CCC4=CC(=O)CC[C@]4(C)[C@H]3CC[C@@]21C` [CB-03-01, Clascoterone, reference compound], the “The inhibition rate of the growth of sebaceous plaques (%)” value [1] was 69.53%.
In the case of `Cc1ncsc1-c1ccc(CNC(=O)[C@@H]2C[C@@H](O)CN2C(=O)[C@@H](NC(=O)COCCCCOc2ccc(-c3ncc(N4C(=S)N(c5ccc(C#N)c(C(F)(F)F)c5F)C(=O)C4(C)C)cc3F)c(C(F)(F)F)c2)C(C)(C)C)cc1` [Compound A88], the DC50 (AR) is reported as 55 nM, the “Tumor growth inhibition rate” value ([2]; 10 mpk by gavage, 3 days) is reported as 19.81% and the “Tumor growth inhibition rate” value ([2]; 10 mpk by gavage, 7 days) is reported as 38.44%. For the same compound, the “Tumor growth inhibition rate” value ([2]; 10 mpk by gavage, 10 days) was 31.33%, the “Tumor growth inhibition rate” value ([2]; 10 mpk by gavage, 14 days) was 13.15% and the “Tumor growth inhibition rate” value ([2]; 25 mpk by gavage, 3 days) was 14.98%. For the same compound, the “Tumor growth inhibition rate” value ([2]; 25 mpk by gavage, 7 days) was 36.36%, the “Tumor growth inhibition rate” value ([2]; 25 mpk by gavage, 10 days) was 37.51% and the “Tumor growth inhibition rate” value ([2]; 25 mpk by gavage, 14 days) was 24.68%. For the same compound, the “Tumor growth inhibition rate” value ([2]; 50 mpk by gavage, 3 days) was 22.30%, the “Tumor growth inhibition rate” value ([2]; 50 mpk by gavage, 7 days) was 51.85% and the “Tumor growth inhibition rate” value ([2]; 50 mpk by gavage, 10 days) was 42.62%. The “Tumor growth inhibition rate” value ([2]; 50 mpk by gavage, 14 days) was 24.47%.
For `CC(C)C(=O)Nc1ccc([N+](=O)[O-])c(C(F)(F)F)c1` [Flutamide, reference compound], the “The inhibition rate of the growth of sebaceous plaques (%)” value [1] was 40.74%.
With `CCC(=O)O[C@H]1CC[C@H]2[C@@H]3CCC4=CC(=O)CC[C@]4(C)[C@H]3CC[C@]12C` [testosterone propionate, reference compound] the “area of sebaceous plaques” value ([1]; model group, 12 μg TP skin smear, after 21 days) was 40-50 mm^2.
